Entries after “also recorded” stand apart in the source; their conditions may differ. One block for each compound: values may come before it. Where a SMILES comes first, the peptide text is derived from it. [ ]: non-standard residue; d: D form. The star is where a group is joined. Propanoyl(3-cHex) = O=C(CCC1CCCCC1)*; Orn = NCCC[C@H](N)C(=O)O; Dab = NCC[C@H](N)C(=O)O; Dap = NC[C@H](N)C(=O)O
Assays:
[1] = molecular target: T1, hNMUR2 (Homo sapiens, UniProt Q9GZQ4); assay: In vitro agonist activity for human neuromedin U receptor (intracellular calcium, Fluo-4, CHO cells stably expressing the receptor); assay type: cell-based; details: at a concentration of 100 nM; versus hNMUR1; selective = relative agonist activity for NMUR1 18% or less at 1000 nM and for NMUR2 48% or more at 100 nM
T1 construct: expressed in transfected cells
Description: For CPN-219 which has been synthesized in Synthesis Example 1, evaluation of the agonist activity for type 1 and type 2 human neuromedin U receptor (hNMUR1 and hNMUR2) was carried out according to the following method.
CHO cells derived from Chinese hamster ovary which stably express hNMUR1 or hNMUR2 were cultured in a 5% (v/v) CO2 incubator at 37° C. by using MEM alpha (GIBCO (registered trademark), Thermo Fisher Scientific Inc.) medium containing 1 mg/mL G418 (NACALAI TESQUE, INC.), 10% (v/v) fetal bovine serum (FCS) and nucleosides (adenosine 10 mg/L, cytidine 10 mg/L, guanosine 10 mg/L, uridine 10 mg/L, 2′-deoxyadenosine 10 mg/L, 2′-deoxycytidine hydrochloride 11 mg/L, 2′-deoxyguanosine 10 mg/L, thymidine 10 mg/L).
The CHO cells were sown on a 96 well black-walled plate with clear bottom (Iwaki: AGC TECHNO GLASS CO., LTD.) at 2.0×10^4 cells per well (150 μL DMEM+10% (v/v) FBS), and then cultured for 18 hours.
(§1) After the culture, 100 μL of Fluo-4 AM (Promega Corporation) solution as a fluorescent indicator of intracellular calcium concentration was added to each well, in which the solution has been prepared such that it has the final concentration of 4 μM in assay buffer (HBSS, 10 mM HEPES, 2.5 mM probenecid, 1% (v/v) FCS: pH 7.4). After culture for 40 minutes at 37° C., the cells were washed 4 times with the assay buffer and set in a fluorometric imaging plate reader (Molecular Devices, LLC.).
The peptide as a test sample was dissolved by using dimethyl sulfoxide (DMSO) such that the stock solution is present at 20 mM, and then it was stored at 4° C. One hour before addition to the cells, by using an assay buffer added with 0.05% (v/v) bovine serum albumin (BSA) and […] Triton (registered trademark) X-100, preparation to arbitrary final concentration was made (10^−12 to 10^−6 M), and the fluorescence based on the activity of recruiting intracellular calcium by the peptide (i.e., agonist activity) was measured by using a fluorometric imaging plate reader.

[2] = Stability in rat plasma (LC/MS); assay type: in vitro ADME; details: 37° C.
Description: Peptide solution was added to rat plasma such that the final peptide concentration is 50 μg/mL, and then incubated for arbitrary time period (0.5 to 6 hours) at 37° C. After the arbitrary time period, sampling was carried out and high performance liquid chromatography mass spectrometry (LC/MS) was performed under the following conditions followed by stability analysis.
LC/MS System: LC-MS2020 (SHIMADZU CORPORATION)
Column: TSKgel ODS-100V (Tosoh Corporation, 3.0 μm, 2.0 mm×75 mm)
Mobile layer: 0.1% trifluoroacetic acid (pH 2.5):acetonitrile=2:1
Column temperature: 40° C.
Detection: ESI^+, m/z=425.

[3] = Stability in phosphate buffer solution (HPLC recovery rate); assay type: physicochemical
Description: Peptide solution was prepared (1 mL) by using a 100 mM phosphate buffer solution (pH 7.4) so as to have the final concentration of 1 mM, and then the peptide solution was incubated for arbitrary time period (1 to 72 hours) in a water bath at 37° C. After the arbitrary time period, sampling was carried out and 20 μL of injection into high performance liquid chromatography (HPLC) (column: COSMOSIL (registered trademark) Cholester Packed Column 4.6 mmI.D.×150 mm; gradient: % B 25-35, 30 min [A: H2O-0.1% (v/v) TFA; B: MeCN]; flow rate: 1.0 mL/min; measurement wavelength: 220 nm) was made. Then, by taking the obtained area value as an indicator, the stability was analyzed from the recovery rate (%) of the compound.

[4] = molecular target: T2, mNMUR2 (Mus musculus, UniProt Q8BZ39); assay: In vitro agonist activity for mouse neuromedin U receptor (intracellular calcium, Fluo-4, transfected HEK293 cells); assay type: cell-based; details: at a concentration of 100 nM, versus mNMUR1
T2 construct: expressed in transfected cells; host or cells: HEK293 cells (transient transfection with FuGENE6)
Description: For CPN-219 which has been synthesized in Synthesis Example 1, evaluation of the agonist activity for type 1 and type 2 mouse neuromedin U receptor (mNMUR1 and mNMUR2) was carried out according to the following method.
HEK293 cells derived from human embryonic kidney were cultured in a 5% (v/v) CO2 incubator at 37° C. by using DMEM-high glucose (GIBCO (registered trademark), Thermo Fisher Scientific Inc.) medium containing 10% (v/v) FCS.
Cells were sown on a 100 mm dish at 5.0×10^5 cells (10 mL DMEM+10% FBS), and then cultured for 18 hours. After the culture, by using FuGENE6 (Promega Corporation), the cultured cells were transfected with an expression plasmid which encodes mNMUR1 or mNMUR2 (2.5 μg). The cells were cultured for 18 hours. […]
as §1, with “On the next” for “After the culture,”, “On the next day, 100 μL” for “After the culture, 100 μL”, “probenecid, 1% FCS: pH” for “probenecid, 1% (v/v) FCS: pH”, “Devices, LLC.). […]” for “Devices, LLC.).”

[5] = Pharmacokinetics of peptides in rat after administration via jugular vein; assay type: in vivo; details: Wistar rat, 500 μg/200 μL via jugular vein, 1 to 240 minutes; compared to CPN-116
Description: The peptide solution (500 μg/200 μL) was administered via jugular vein of a Wistar rat. After arbitrary time period (1 to 240 minutes), blood was taken from the femoral artery which has been subjected to cannulation in advance. According to the LC/MS analysis, pharmacokinetics of the peptide was analyzed. The LC/MS analysis was carried out under the same conditions as above.

[6] = test system: ddy male mouse; assay: Suppression of body weight gain and food intake upon intranasal administration to a mouse; assay type: in vivo; details: 64 μg or 213 μg once intranasally, Day 1 to 5, versus physiological saline
Description: CPN-219, each dissolved at 64 μg or 213 μg in physiological saline (5 μL), was administered once to the nasal cavity of a ddy male mouse under anesthetization. As a control, physiological saline (5 μL) was administered once to the nasal cavity. For each administration group, the body weight of a mouse and food intake amount were measured immediately before the administration, each of Day 1 to 5 from immediately after the administration.
The body weight of a mouse was 29.0±0.83 g for the group with intranasal administration of 64 μg, or 27.7±1.29 g for the group with intranasal administration of 213 μg.

[7] = test system: ddy male mouse; assay: Fluctuation in corticosterone concentration in blood; assay type: in vivo; details: 200 μg/5 μL intranasal, after 5 minutes
Description: Peptide solution (200 μg/5 μL) or physiological saline (5 μL) was administered, either intranasally or peritoneally, to a ddY male mouse. After 5 minutes, blood was taken from the caval vein, and corticosterone concentration in plasma was analyzed according to the LC/MS analysis. Furthermore, as a control, without administering the peptide solution (200 μg/5 μL) or physiological saline (5 μL), blood was taken […] from the caval vein, and corticosterone concentration in plasma was analyzed according to the LC/MS analysis. The LC/MS analysis was carried out under the same conditions as above.

[8] = test system: ddy male mouse; assay: Suppression of increase in prolactin concentration in blood under restraint stress; assay type: in vivo; details: 200 μg/5 μL intranasal, restraint stress 20 minutes, ELISA
Description: Peptide solution (200 μg/5 μL) or physiological saline (5 μL) was administered to the nasal cavity of a ddY male mouse. After 20 minutes, restraint stress (i.e., addition to the inside of a tube) was applied for 20 minutes and blood was taken by cutting off the animal head. Then, the PLT concentration in plasma was analyzed by using Mouse Prolactin DuoSet ELISA (R&D systems).
Furthermore, for a ddY male mouse which has not been administered with the peptide solution (200 μg/5 μL) or physiological saline (5 μL), and also not applied with any stress, the PLT concentration in plasma was analyzed in the same manner as above.

[9] = Brain delivery upon intranasal administration to a mouse; assay type: in vivo; details: ddY male mouse, 200 μg/5 μL intranasal, after 5 minutes; compared to CPN-116
Description: Peptide solution (200 μg/5 μL) was administered to the nasal cavity of a ddY male mouse. After 5 minutes, the animal was sacrificed and the brain tissues were collected. According to the LC/MS analysis, concentration of the peptide in plasma and brain was analyzed, and the ratio of concentration in brain compared to concentration in plasma was analyzed. The LC/MS analysis was carried out under the same conditions as above.

[10] = 2 hours, read-out: recovery rate in rat plasma after 2 hours
[11] = 100 mM phosphate buffer solution pH 7.4, 37° C., after 48 hours

T1 sequence (Q9GZQ4 whole entry): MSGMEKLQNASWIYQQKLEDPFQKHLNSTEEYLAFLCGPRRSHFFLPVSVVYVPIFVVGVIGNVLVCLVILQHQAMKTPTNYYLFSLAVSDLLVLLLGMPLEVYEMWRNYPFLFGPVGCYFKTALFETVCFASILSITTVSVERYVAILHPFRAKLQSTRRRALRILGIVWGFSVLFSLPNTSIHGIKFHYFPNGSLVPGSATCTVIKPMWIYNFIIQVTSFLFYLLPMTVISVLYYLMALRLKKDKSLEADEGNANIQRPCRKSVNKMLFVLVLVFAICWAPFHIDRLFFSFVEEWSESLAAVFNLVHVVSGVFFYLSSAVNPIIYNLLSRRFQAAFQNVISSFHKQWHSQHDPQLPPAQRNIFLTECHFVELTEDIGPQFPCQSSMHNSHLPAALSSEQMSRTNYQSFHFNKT
T2 sequence (Q8BZ39 whole entry): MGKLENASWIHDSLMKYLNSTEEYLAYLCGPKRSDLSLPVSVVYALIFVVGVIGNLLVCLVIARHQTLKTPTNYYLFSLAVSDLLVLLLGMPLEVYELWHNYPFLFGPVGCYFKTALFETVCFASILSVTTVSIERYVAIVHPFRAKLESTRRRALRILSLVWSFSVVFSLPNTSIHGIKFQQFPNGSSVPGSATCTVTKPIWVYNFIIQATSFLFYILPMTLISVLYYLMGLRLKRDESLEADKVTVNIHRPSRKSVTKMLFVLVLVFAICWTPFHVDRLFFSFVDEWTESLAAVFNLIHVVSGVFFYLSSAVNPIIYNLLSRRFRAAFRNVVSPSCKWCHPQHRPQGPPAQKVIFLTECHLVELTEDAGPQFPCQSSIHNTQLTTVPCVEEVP

Compound: 3-Cyclohexylpropionyl-Leu-Leu-Orn-Pro-Arg-Asn-NH2 ({Propanoyl(3-cHex)}-LL[Orn]PRN-NH2; SMILES CC(C)C[C@H](NC(=O)CCC1CCCCC1)C(=O)N[C@@H](CC(C)C)C(=O)N[C@@H](CCCN)C(=O)N1CCC[C@H]1C(=O)N[C@@H](CCCNC(=N)N)C(=O)N[C@@H](CC(N)=O)C(N)=O) [CPN-221]
- hNMUR2 selective agonist activity [1]: exhibited the hNMUR2 selective agonist activity

- recovery at 2 h, 50 μg/mL [2, 10]: ≤ 3%
- converted to CPN-220 in phosphate buffer solution [3, 11]: ≥ 70%
- chemical stability (in words) ([3]; 100 mM phosphate buffer solution, conclusion from Test Examples 11 and 12): chemically unstable
Compound: CC(C)C[C@H](NC(=O)CCC1CCCCC1)C(=O)N[C@@H](CC(C)C)C(=O)N[C@@H](CN)C(=O)N1CCC[C@H]1C(=O)N[C@@H](CCCNC(=N)N)C(=O)N[C@@H](CC(N)=O)C(N)=O [CPN-116, 3-Cyclohexylpropionyl-Leu-Leu-Dpr-Pro-Arg-Asn-NH2] ({Propanoyl(3-cHex)}-LL[Dap]PRN-NH2)

Compound: 3-Cyclohexylpropionyl-Leu-Leu-Dpr-Pro-Arg-Asn-NH2 ({Propanoyl(3-cHex)}-LL[Dap]PRN-NH2) [CPN-220]
- hNMUR2 selective agonist activity [1]: did not exhibit the hNMUR2 selective agonist activity; also recorded: does not show the hNMUR2 selective agonist activity
- converted to CPN-116 in phosphate buffer solution [3, 11]: ≥ 25%

- recovery at 2 hours, 50 μg/mL [2, 10]: ≥ 80%
- recovery at 6 hours, 50 μg/mL ([2]; 6 hours, read-out: recovery rate in rat plasma after 6 hours): ≥ 60%
Compound: CC(C)C[C@H](NC(=O)CCC1CCCCC1)C(=O)N[C@@H](CC(C)C)C(=O)N[C@@H](CCN)C(=O)N1CCC[C@H]1C(=O)N[C@@H](CCCNC(=N)N)C(=O)N[C@@H](CC(N)=O)C(N)=O [CPN-219, 3-Cyclohexylpropionyl-Leu-Leu-Dbu-Pro-Arg-Asn-NH2] ({Propanoyl(3-cHex)}-LL[Dab]PRN-NH2)
- mNMUR2 selective agonist activity [4]: exhibited the mNMUR2 selective agonist activity
- pharmacokinetics in rat blood [5]: more favorable pharmacokinetics in rat blood
- hNMUR2 selective agonist activity [1]: exhibited the NMUR2 selective agonist activity
- body weight gain of a mouse [6]: significantly suppressed the body weight gain
- food intake of a mouse [6]: significantly suppressed
- corticosterone concentration in blood [7]: significantly increased the corticosterone concentration in blood
- prolactin secretion (PLT concentration in plasma) [8]: suppresses the prolactin secretion
- brain delivery (ratio of concentration in brain to concentration in plasma; transfer to olfactory bulb) [9]: more favorable transfer to an olfactory bulb

— patent US10550153B2, “Peptide or pharmaceutically acceptable salt thereof, or prodrug thereof” (Tokyo University of Pharmacy & Life Sciences, priority 2017, dated 2020)
